From ChEMBL document CHEMBL1201862, “PubChem BioAssay data set” (2004) come the findings set out here.

SMILES strings stand for the structures.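 In this assay, cells in 96-well plates receive the compound at five concentrations for 48 hours. Endpoints are linearly interpolated between the surrounding concentrations. GI50 marks 50% less growth.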 Calls of active or inactive are those of the source. Rule as the data show it: active = GI50 up to about 1.1 µM and inactive = higher. A value given as a limit tells only on which side of the number the result lay.

Test systems include ACHN; CAKI-1; COLO 205; HCT-116; IGROV-1; MDA-MB-435; OVCAR-3; OVCAR-5; RPMI-8226; RXF 393; SF-295; SK-MEL-5; SN12C; SNB-19; TK-10; UACC-257; UACC-62; UO-31; LOX IMVI; SW-620.
Common to all, as to experiment: NCI tumour cell line growth inhibition, 48 h

As for `CO/C=C(/C(=O)OC)[C@@H]1C[C@@H]1c1ccc2ccccc2c1`, the GI50 in the experiment with ACHN is 25.9 µM (inactive); with CAKI-1 it was 21.6 µM (inactive); in the experiment on COLO 205 it was 18.3 µM (inactive); with HCT-116, 18.1 µM (inactive); with IGROV-1, 20.5 µM (inactive); with MDA-MB-435, 14.7 µM (inactive). The GI50 is 24.6 µM (inactive) in the experiment on OVCAR-3; 97.5 µM (inactive) with OVCAR-5; 20.3 µM (inactive) in the experiment on RPMI-8226; 44.1 µM (inactive) with RXF 393; 37.2 µM (inactive) with SF-295; 16.4 µM (inactive) in the experiment on SK-MEL-5. The GI50 was 32.7 µM (inactive) in the experiment on SN12C; 56.5 µM (inactive) in the experiment with SNB-19; 37.5 µM (inactive) with TK-10; 26 µM (inactive) in the experiment with UACC-257; 32.5 µM (inactive) in the experiment on UACC-62; 30.3 µM (inactive) in the experiment with UO-31.

With `c1ccc2c(CSCc3cccc4ccccc34)cccc2c1`, the GI50 in the experiment on ACHN is > 100 µM (inactive); in the experiment on CAKI-1, > 100 µM (inactive); in the experiment with HCT-116, 57.5 µM (inactive); in the experiment with IGROV-1 it was 38.5 µM (inactive); with LOX IMVI, > 100 µM (inactive); with MDA-MB-435, > 100 µM (inactive). Also, the GI50 is > 100 µM (inactive) with OVCAR-3; > 100 µM (inactive) with OVCAR-5; > 100 µM (inactive) with RXF 393; > 100 µM (inactive) with SF-295; 88.7 µM (inactive) in the experiment on SK-MEL-5; > 100 µM (inactive) with SN12C. Besides, the GI50 in the experiment on SNB-19 is > 100 µM (inactive); with SW-620, > 100 µM (inactive); in the experiment on TK-10, > 100 µM (inactive); in the experiment with UACC-257, 52.7 µM (inactive); in the experiment on UACC-62 it was > 100 µM (inactive); in the experiment with UO-31, > 100 µM (inactive).

As for `CCCCCC(=O)OCC1(CO)C/C(=C\CC(C(C)C)C(C)C)C(=O)O1` (stereo unspecified), the GI50 was > 100 µM (inactive) in the experiment on ACHN; 83.6 µM (inactive) with CAKI-1; 17.9 µM (inactive) in the experiment on COLO 205; 45.7 µM (inactive) with HCT-116; 65.8 µM (inactive) with IGROV-1; 27 µM (inactive) with LOX IMVI. For the same molecule, the GI50 in the experiment on MDA-MB-435 was > 100 µM (inactive); in the experiment with OVCAR-3, > 100 µM (inactive); in the experiment with OVCAR-5, > 100 µM (inactive); in the experiment on RXF 393, > 100 µM (inactive); in the experiment with SF-295, 25.9 µM (inactive); with SK-MEL-5 it was 38.4 µM (inactive). The GI50 in the experiment with SN12C is 31.6 µM (inactive); in the experiment with SNB-19, > 100 µM (inactive); in the experiment on SW-620, 24.4 µM (inactive); in the experiment on TK-10, > 100 µM (inactive); with UACC-257 it was > 100 µM (inactive); in the experiment with UACC-62, > 100 µM (inactive). Further, in the experiment on UO-31, the GI50 was > 100 µM (inactive).

Regarding `CC1CCCN1CCCOC(=O)c1ccc(OC2C=CCCC2)cc1` (stereo unspecified), the GI50 in the experiment with ACHN is 33.5 µM (inactive); with COLO 205 it was 16.6 µM (inactive); with HCT-116, 17.2 µM (inactive); in the experiment on IGROV-1, 21.4 µM (inactive); in the experiment with LOX IMVI, 19.7 µM (inactive); with MDA-MB-435, > 100 µM (inactive). For the same molecule, the GI50 is 39.2 µM (inactive) in the experiment on OVCAR-3; 71.9 µM (inactive) with OVCAR-5; 31.8 µM (inactive) in the experiment with RPMI-8226; 26.7 µM (inactive) with RXF 393; 16.5 µM (inactive) in the experiment with SF-295; 19.2 µM (inactive) with SK-MEL-5. Besides, the GI50 was 39.4 µM (inactive) in the experiment with SN12C; 38.2 µM (inactive) with SNB-19; 20.7 µM (inactive) in the experiment on SW-620; 36.9 µM (inactive) in the experiment on TK-10; 60.8 µM (inactive) in the experiment on UACC-257; > 100 µM (inactive) in the experiment on UACC-62. In addition, in the experiment with UO-31, the GI50 is 34.2 µM (inactive).

For `CCN1CCCCCCCCCC(=N/O)/C(=N\O)C1`, the GI50 in the experiment on ACHN, with CAKI-1, with HCT-116, in the experiment on IGROV-1, with LOX IMVI and in the experiment with MDA-MB-435 was > 100 µM (inactive) throughout. For the same molecule, the GI50 in the experiment with OVCAR-3, in the experiment with OVCAR-5, in the experiment with RXF 393, with SF-295, in the experiment on SK-MEL-5 and in the experiment on SN12C was > 100 µM (inactive) each time. Also, the GI50 with SNB-19, in the experiment with SW-620, in the experiment on TK-10, in the experiment with UACC-257 and in the experiment with UO-31 was > 100 µM (inactive) each time.

As for `CC1(C)OCC(C2OC3OC(C)(C)OC3C2c2ccccc2)O1` (stereo unspecified), the GI50 in the experiment on ACHN is 51.9 µM (inactive); in the experiment with COLO 205, 21.2 µM (inactive); with HCT-116 it was 36.4 µM (inactive); in the experiment with IGROV-1, 41.1 µM (inactive); in the experiment with LOX IMVI it was 32.1 µM (inactive); in the experiment on MDA-MB-435 it was 37.8 µM (inactive). Moreover, the GI50 with OVCAR-3 is 34.4 µM (inactive); in the experiment on OVCAR-5, 91.6 µM (inactive); in the experiment on RPMI-8226, 48.8 µM (inactive); with RXF 393, 48.3 µM (inactive); in the experiment with SF-295, > 100 µM (inactive); with SK-MEL-5, 17.1 µM (inactive). Also, the GI50 with SN12C is 26.7 µM (inactive); in the experiment with SNB-19 it was 71.8 µM (inactive); in the experiment on SW-620, 32.8 µM (inactive); with TK-10, 32.1 µM (inactive); in the experiment on UACC-257, 36.1 µM (inactive); in the experiment on UACC-62 it was 27 µM (inactive). Also, the GI50 with UO-31 was 44.8 µM (inactive).

As to `C#CCCCC(=C)C[C@H](OCc1ccccc1)[C@H]1OC(=O)[C@@H]1C`, the GI50 with ACHN is 72.6 µM (inactive); in the experiment on CAKI-1 it was 14.9 µM (inactive); in the experiment on MDA-MB-435, 48.6 µM (inactive); with OVCAR-3, 31.3 µM (inactive); in the experiment on OVCAR-5, > 100 µM (inactive); with RPMI-8226 it was 11.5 µM (inactive). For the same molecule, the GI50 in the experiment on RXF 393 was > 100 µM (inactive); with SF-295, 89.7 µM (inactive); in the experiment on SN12C, > 100 µM (inactive); with SNB-19 it was > 100 µM (inactive); in the experiment with SW-620 it was > 100 µM (inactive); with TK-10, > 100 µM (inactive). Moreover, the results for the GI50 in the experiment with UACC-257, with UACC-62 and in the experiment on UO-31 were > 100 µM (inactive), > 100 µM (inactive) and 23.9 µM (inactive), respectively.

In the case of `OC1=C(c2ccccc2)C2=NCCN2c2ccccc21`, the GI50 with ACHN was 40.6 µM (inactive); in the experiment with CAKI-1 it was > 100 µM (inactive); in the experiment on COLO 205 it was 47 µM (inactive); in the experiment with HCT-116 it was 34.7 µM (inactive); in the experiment on IGROV-1 it was 40.9 µM (inactive); with LOX IMVI, 31.7 µM (inactive). For the same molecule, the GI50 in the experiment on MDA-MB-435 is 39.1 µM (inactive); in the experiment on OVCAR-3, 18.2 µM (inactive); in the experiment with OVCAR-5, 66.1 µM (inactive); in the experiment with RPMI-8226, 36.4 µM (inactive); in the experiment with SF-295, 46.1 µM (inactive); in the experiment with SK-MEL-5, 27.8 µM (inactive). In addition, the GI50 in the experiment on SN12C was > 100 µM (inactive); with SNB-19, 20 µM (inactive); in the experiment with SW-620, 78.7 µM (inactive); in the experiment on TK-10 it was 94 µM (inactive); in the experiment with UACC-257 it was 93.1 µM (inactive); in the experiment with UACC-62, 29.2 µM (inactive). Further, in the experiment with UO-31, the GI50 was 36.9 µM (inactive).

In the case of `COc1cc(C2c3cc4c(cc3OC(Nc3ccccc3)C2C)OCO4)cc(OC)c1O` (stereo unspecified), the GI50 with CAKI-1 is 8.39 µM (inactive); in the experiment on COLO 205, 11.3 µM (inactive); in the experiment with HCT-116, 3.93 µM (inactive); in the experiment with IGROV-1, 4.55 µM (inactive); in the experiment on MDA-MB-435, 0.394 µM (active); in the experiment on OVCAR-3, 4.47 µM (inactive). For the same molecule, the GI50 was 7.96 µM (inactive) in the experiment with OVCAR-5; 3.69 µM (inactive) in the experiment with RPMI-8226; 4.45 µM (inactive) in the experiment on RXF 393; 4.28 µM (inactive) with SF-295; 3.08 µM (inactive) in the experiment with SK-MEL-5; 4.66 µM (inactive) in the experiment with SN12C. In addition, the GI50 in the experiment with SNB-19 was 10.6 µM (inactive); in the experiment with SW-620, 3.37 µM (inactive); with TK-10, 3.49 µM (inactive); in the experiment on UACC-257, 7.73 µM (inactive); with UACC-62 it was 3.66 µM (inactive); with UO-31, 8.38 µM (inactive).

For the molecule `CC(C)C1=CC23CCC4C(C)(C(=O)O)CCCC4(C)C2CC1C1C(=O)N(CCCCCCN2C(=O)C4C5CC6C7(C)CCCC(C)(C(=O)O)C7CCC6(C=C5C(C)C)C4C2=O)C(=O)C13` (stereo unspecified), the GI50 with ACHN was 10.9 µM (inactive); in the experiment with COLO 205 it was > 10 µM (inactive); in the experiment with HCT-116 it was 8.51 µM (inactive); with MDA-MB-435 it was 4.54 µM (inactive); with OVCAR-3, 13.9 µM (inactive); in the experiment with OVCAR-5, 22.4 µM (inactive). Besides, the GI50 was 13.7 µM (inactive) with RPMI-8226; 14.2 µM (inactive) in the experiment with RXF 393; 14 µM (inactive) in the experiment on SK-MEL-5; 14 µM (inactive) in the experiment on SN12C; 10.5 µM (inactive) in the experiment on SNB-19; 15.9 µM (inactive) with SW-620. In addition, the GI50 was 16.2 µM (inactive) with TK-10, 37.8 µM (inactive) in the experiment with UACC-62 and > 10 µM (inactive) in the experiment on UO-31.

For the molecule `C=C(CC[C@@H](C)[C@H]1CC[C@@]2(C)C3=C(CC[C@]12C)[C@@]1(C)CC[C@H](O)[C@@H](C)C1CC3)C(C)C` (stereo partly specified), the GI50 was 1.38 µM (inactive) with ACHN; 1.15 µM (inactive) in the experiment on CAKI-1; 1.17 µM (inactive) with COLO 205; 1.31 µM (inactive) with HCT-116; 2.35 µM (inactive) in the experiment on IGROV-1; 0.906 µM (active) in the experiment with LOX IMVI. For the same molecule, the GI50 in the experiment on MDA-MB-435 is 1.32 µM (inactive); in the experiment with OVCAR-3, 1.77 µM (inactive); with OVCAR-5, 1.42 µM (inactive); in the experiment with RXF 393, 1.37 µM (inactive); in the experiment with SF-295, 1.08 µM (active); in the experiment with SK-MEL-5, 1.26 µM (inactive). The GI50 in the experiment on SN12C was 1.44 µM (inactive); in the experiment with SNB-19, 2.17 µM (inactive); in the experiment with SW-620 it was 1.71 µM (inactive); with TK-10, 1.35 µM (inactive); in the experiment with UACC-257, 1.49 µM (inactive); in the experiment with UACC-62 it was 1.43 µM (inactive). Also, in the experiment with UO-31, the GI50 was 1.23 µM (inactive).
